Results published in patent US4618602A, “Amine containing pseudooligosaccharide, pharmaceutical composition and method of use” (Hoechst Aktiengesellschaft, priority 1984, dated 1986).

Assays:
[1] = tested on: α-Amylase from the pancreas of pigs; assay: Amylase test (inhibition of α-amylase, amylase inhibitor units); format: biochemical; conditions: 1 AIU inhibits two amylase units by 50%, pH 6.9, 37° C.
Experimental: One amylase inhibitor unit (AIU) is defined as the amount of inhibitor which is capable of inhibiting two amylase units (AU) to the extent of 50% under the test conditions. By international agreement, one amylase unit is the amount of enzyme which cleaves 1 μEq of glucosidic bonds in starch in one minute. The μ equivalents of glucosidic bonds cleaved are determined photometrically, with dinitrosalicylic acid, as μEq of reducing sugars. The data are calculated as μmol of maltose, determined with the aid of a maltose calibration line.
α-Amylase from the pancreas of pigs and the solutions to be tested are preincubated together in 1.0 ml of 20 mM phosphate buffer, pH 6.9, +10 mM NaCl at 37° C. for 10-20 minutes. The enzymatic reaction is started by addition of 1.0 ml of soluble starch (0.25% strength in the buffer described) according to Zulkowski. After exactly 10 minutes, the reaction istopped with 2.0 ml of dinitrosalicylic acid color reagent (from Boehringer Mannheim: Biochemica-Information II), and the mixture is heated in a boiling waterbath for 5 minutes for color development. After cooling, the extinction is measured against the reagent blank at 546 nm. The 50% inhibition is determined graphically by means of a probability plot in comparison with the non-inhibited enzyme reaction using various amounts of inhibitor.

[2] = Solubility in water; format: physicochemical
[3] = tested on: experimental animals; assay: Oral administration of high doses to experimental animals (tolerability); format: in vivo
[4] = tested on: blood sugar; assay: Blood sugar after oral starch load in fasting male Wistar rats; format: in vivo; conditions: simultaneously with 2 g of starch per kg, fasting male Wistar rats 200-250 g
Text: The α-glucosidase inhibitor according to the invention is particularly suitable for ora administration. It can be administered as the pure substance, as a physiologically acceptable salt with acids or in the form of a pharmaceutical formulation, using the customary auxiliaries and excipients. Combined use with other medicaments, such as hypoglycemic or lipid-lowering substances, may also be advantageous. Since high molecular weight saccharides are not, or not noticeably, absorbed as such from the digestive tract, no toxicologically unacceptable side effects are to be expected of the substance according to the invention. […] To test the pharmacological action of the AI-5662, fasting male Wistar rats weighing between 200 and 250 g were given an oral administration of the inhbitor AI-5662 according to the invention simultaneously with 2 g of starch per kg of body weight. […] Besides blood glucose regulation, the […] according to the invention can also be used for inhibiting salivary α-amylase. This enzyme effects digestion of starch in the mouth, and the sugar thus formed promotes caries of the teeth. The compound according to the invention can therefore be used to prevent or reduce the development of caries.

**Q.** For C[C@H]1O[C@H](O[C@H]2[C@H](O)[C@@H](O)[C@@H](O[C@H]3[C@H](O)[C@@H](O)C(O)O[C@@H]3CO)O[C@@H]2CO)[C@H](O)[C@@H](O)[C@@H]1N[C@H]1C=C(CO)[C@@H](O[C@H]2O[C@H](CO)[C@@H](O[C@H]3O[C@H](C)[C@@H](N[C@H]4C=C(CO)[C@@H](O)[C@H](O)[C@H]4O)[C@H](O)[C@H]3O)[C@H](O)[C@H]2O)[C@H](O)[C@H]1O (some centres unmarked) [AI-5662], which α-amylase-inhibiting action ([1]; freeze-dried white amorphous powder of Example 2) is on record?
**A.** The α-amylase-inhibiting action was 4×10^4 AIU per mg.

**Q.** And the specific activity ([1]; purified product after silica gel chromatography)?
**A.** The specific activity was 4×10^4 α-amylase inhibitor units per mg.

**Q.** And the solubility in water [2]?
**A.** Its solubility in water is “readily soluble in water”.

**Q.** What about the “signs following oral administration even of high doses” value [3] of the same compound?
**A.** Its value is “no notworthy signs were detected”.

**Q.** And the “efficacy on blood sugar concentrations” value [4]?
**A.** The value was “The efficacy of the product was demonstrated”.
